From ChEMBL document CHEMBL6092180 (Eur J Med Chem, 2024)
In brackets after ≈: the same amount, converted by molar mass.

Tests used:
Type in all cases: functional
Candida albicans [1] = assay: Antifungal activity against Candida albicans SC5314 assessed as inhibition of fungal growth by CLSI M27-A3 guidelines based method
Candida albicans [2] = assay: Antifungal activity against Candida albicans GIM 2.194 assessed as inhibition of fungal growth by CLSI M27-A3 guidelines based method
Candida tropicalis = assay: Antifungal activity against Candida tropicalis GIM 2.183 assessed as inhibition of fungal growth by CLSI M27-A3 guidelines based method
Candida parapsilosis = assay: Antifungal activity against Candida parapsilosis GIM 2.190 assessed as inhibition of fungal growth by CLSI M27-A3 guidelines based method; settings: Lodderomyces parapsilosis
Nakaseomyces glabratus = assay: Antifungal activity against Candida glabrata assessed as inhibition of fungal growth by CLSI M27-A3 guidelines based method
Pichia kudriavzevii = assay: Antifungal activity against Candida krusei GIM 2.1 assessed as inhibition of fungal growth by CLSI M27-A3 guidelines based method
Cryptococcus neoformans = assay: Antifungal activity against Cryptococcus neoformans CGMCC 2.3161 assessed as inhibition of fungal growth by CLSI M27-A3 guidelines based method
Aspergillus fumigatus = assay: Antifungal activity against Aspergillus fumigatus cgmcc 3.7795 assessed as inhibition of fungal growth by CLSI M27-A3 guidelines based method
Candida albicans [3] = assay: Antifungal activity against fluconazole-resistant Candida albicans CaR assessed as inhibition of fungal growth by CLSI M27-A3 guidelines based method
Candida albicans [4] = assay: Antifungal activity against fluconazole and iodiconazole resistant Candida albicans clinical isolate 17# assessed as inhibition of fungal growth by CLSI M27-A3 guidelines based method
Candida albicans [5] = assay: Antifungal activity against fluconazole-resistant Candida albicans clinical isolate 901 assessed as inhibition of fungal growth by CLSI M27-A3 guidelines based method
Candida albicans [6] = assay: Antifungal activity against fluconazole-resistant Candida albicans clinical isolate 904 assessed as inhibition of fungal growth by CLSI M27-A3 guidelines based method
Candida albicans [7] = assay: Antifungal activity against fluconazole-resistant Candida albicans clinical isolate 632 assessed as inhibition of fungal growth by CLSI M27-A3 guidelines based method
Candida albicans [8] = assay: Antifungal activity against fluconazole-resistant Candida albicans clinical isolate 100 assessed as inhibition of fungal growth by CLSI M27-A3 guidelines based method
Candida albicans [9] = assay: Antifungal activity against fluconazole-resistant Candida albicans clinical isolate 103 assessed as inhibition of fungal growth by CLSI M27-A3 guidelines based method
Candida albicans [10] = assay: Antifungal activity against fluconazole-resistant Candida albicans clinical isolate 311 assessed as inhibition of fungal growth by CLSI M27-A3 guidelines based method

Row | SMILES | MIC80 (Candida albicans [1]) | MIC80 (Candida albicans [2]) | MIC80 (Candida tropicalis) | MIC80 (Candida parapsilosis) | MIC80 (Nakaseomyces glabratus) | MIC80 (Pichia kudriavzevii) | MIC80 (Cryptococcus neoformans) | MIC80 (Aspergillus fumigatus) | MIC80 (Candida albicans [3]) | MIC80 (Candida albicans [4]) | MIC80 (Candida albicans [5]) | MIC80 (Candida albicans [6]) | MIC80 (Candida albicans [7]) | MIC80 (Candida albicans [8]) | MIC80 (Candida albicans [9]) | MIC80 (Candida albicans [10])
1 | C[C@@H](N(C)Cc1ccc(C#Cc2ccc(F)cc2)cc1)[C@](O)(Cn1cncn1)c1ccc(F)cc1F | 0.025 µg/mL (≈ 0.051 µM) | 0.025 µg/mL (≈ 0.051 µM) | 0.006 µg/mL (≈ 0.0122 µM) | 0.006 µg/mL (≈ 0.0122 µM) | 0.01 µg/mL (≈ 0.0204 µM) | 0.03 µg/mL (≈ 0.0612 µM) | 0.013 µg/mL (≈ 0.0265 µM) | 0.1 µg/mL (≈ 0.204 µM) | 0.25 µg/mL (≈ 0.51 µM) | 0.25 µg/mL (≈ 0.51 µM) | 4 µg/mL (≈ 8.15 µM) | 16 µg/mL (≈ 32.6 µM) | 4 µg/mL (≈ 8.15 µM) | 4 µg/mL (≈ 8.15 µM) | 8 µg/mL (≈ 16.3 µM) | 16 µg/mL (≈ 32.6 µM)
2 | C[C@@H](N(C)Cc1ccc(C#Cc2ccc(I)cc2)cc1)[C@](O)(Cn1cncn1)c1ccc(F)cc1F | 0.05 µg/mL (≈ 0.0836 µM) | 0.05 µg/mL (≈ 0.0836 µM) | 0.013 µg/mL (≈ 0.0217 µM) | 0.013 µg/mL (≈ 0.0217 µM) | 0.03 µg/mL (≈ 0.0501 µM) | 0.05 µg/mL (≈ 0.0836 µM) | 0.05 µg/mL (≈ 0.0836 µM) | 0.2 µg/mL (≈ 0.334 µM) | 16 µg/mL (≈ 26.7 µM) | 16 µg/mL (≈ 26.7 µM) | 16 µg/mL (≈ 26.7 µM) | > 64 µg/mL | 16 µg/mL (≈ 26.7 µM) | 32 µg/mL (≈ 53.5 µM) | 32 µg/mL (≈ 53.5 µM) | > 64 µg/mL
3 | Cc1ccc(C#Cc2ccc(CN(C)[C@H](C)[C@](O)(Cn3cncn3)c3ccc(F)cc3F)cc2)cc1 | 0.025 µg/mL (≈ 0.0514 µM) | 0.013 µg/mL (≈ 0.0267 µM) | 0.006 µg/mL (≈ 0.0123 µM) | 0.006 µg/mL (≈ 0.0123 µM) | 0.01 µg/mL (≈ 0.0206 µM) | 0.03 µg/mL (≈ 0.0617 µM) | 0.025 µg/mL (≈ 0.0514 µM) | 0.1 µg/mL (≈ 0.206 µM) | 0.25 µg/mL (≈ 0.514 µM) | 0.5 µg/mL (≈ 1.03 µM) | 8 µg/mL (≈ 16.4 µM) | 32 µg/mL (≈ 65.8 µM) | 4 µg/mL (≈ 8.22 µM) | 8 µg/mL (≈ 16.4 µM) | 16 µg/mL (≈ 32.9 µM) | 32 µg/mL (≈ 65.8 µM)
4 | C[C@@H](N(C)Cc1ccc(C#Cc2ccc(F)c(F)c2)cc1)[C@](O)(Cn1cncn1)c1ccc(F)cc1F | 0.013 µg/mL (≈ 0.0256 µM) | 0.025 µg/mL (≈ 0.0492 µM) | 0.006 µg/mL (≈ 0.0118 µM) | 0.006 µg/mL (≈ 0.0118 µM) | 0.05 µg/mL (≈ 0.0983 µM) | 0.03 µg/mL (≈ 0.059 µM) | 0.05 µg/mL (≈ 0.0983 µM) | 0.1 µg/mL (≈ 0.197 µM) | 0.25 µg/mL (≈ 0.492 µM) | 0.5 µg/mL (≈ 0.983 µM) | 8 µg/mL (≈ 15.7 µM) | 16 µg/mL (≈ 31.5 µM) | 4 µg/mL (≈ 7.87 µM) | 8 µg/mL (≈ 15.7 µM) | 8 µg/mL (≈ 15.7 µM) | 8 µg/mL (≈ 15.7 µM)
5 | C[C@@H](N(C)Cc1ccc(C#Cc2cc(F)c(F)cc2F)cc1)[C@](O)(Cn1cncn1)c1ccc(F)cc1F | 0.013 µg/mL (≈ 0.0247 µM) | 0.025 µg/mL (≈ 0.0475 µM) | 0.006 µg/mL (≈ 0.0114 µM) | 0.006 µg/mL (≈ 0.0114 µM) | 0.05 µg/mL (≈ 0.095 µM) | 0.05 µg/mL (≈ 0.095 µM) | 0.025 µg/mL (≈ 0.0475 µM) | 0.2 µg/mL (≈ 0.38 µM) | 1 µg/mL (≈ 1.9 µM) | 2 µg/mL (≈ 3.8 µM) | 8 µg/mL (≈ 15.2 µM) | 32 µg/mL (≈ 60.8 µM) | 4 µg/mL (≈ 7.6 µM) | 8 µg/mL (≈ 15.2 µM) | 8 µg/mL (≈ 15.2 µM) | 16 µg/mL (≈ 30.4 µM)
6 | C[C@@H](N(C)Cc1ccc(C#Cc2ccc(Cl)cc2)cc1)[C@](O)(Cn1cncn1)c1ccc(F)cc1F | 0.025 µg/mL (≈ 0.0493 µM) | 0.025 µg/mL (≈ 0.0493 µM) | 0.006 µg/mL (≈ 0.0118 µM) | 0.006 µg/mL (≈ 0.0118 µM) | 0.03 µg/mL (≈ 0.0592 µM) | 0.01 µg/mL (≈ 0.0197 µM) | 0.025 µg/mL (≈ 0.0493 µM) | 0.1 µg/mL (≈ 0.197 µM) | 0.25 µg/mL (≈ 0.493 µM) | 0.5 µg/mL (≈ 0.986 µM) | 8 µg/mL (≈ 15.8 µM) | 16 µg/mL (≈ 31.6 µM) | 8 µg/mL (≈ 15.8 µM) | 8 µg/mL (≈ 15.8 µM) | 16 µg/mL (≈ 31.6 µM) | 32 µg/mL (≈ 63.1 µM)
7 | CC(=O)c1ccc(C#Cc2ccc(CN(C)[C@H](C)[C@](O)(Cn3cncn3)c3ccc(F)cc3F)cc2)cc1 | 0.013 µg/mL (≈ 0.0253 µM) | 0.013 µg/mL (≈ 0.0253 µM) | 0.006 µg/mL (≈ 0.0117 µM) | 0.006 µg/mL (≈ 0.0117 µM) | 0.01 µg/mL (≈ 0.0194 µM) | 0.01 µg/mL (≈ 0.0194 µM) | 0.013 µg/mL (≈ 0.0253 µM) | 0.1 µg/mL (≈ 0.194 µM) | 0.25 µg/mL (≈ 0.486 µM) | 0.5 µg/mL (≈ 0.972 µM) | 8 µg/mL (≈ 15.5 µM) | 16 µg/mL (≈ 31.1 µM) | 4 µg/mL (≈ 7.77 µM) | 16 µg/mL (≈ 31.1 µM) | 16 µg/mL (≈ 31.1 µM) | 16 µg/mL (≈ 31.1 µM)
8 | CN(Cc1ccc(C#Cc2ccccc2I)cc1)CC(O)(Cn1cncn1)c1ccc(F)cc1F (centres undefined) | 0.013 µg/mL (≈ 0.0222 µM) | 0.006 µg/mL (≈ 0.0103 µM) | 0.006 µg/mL (≈ 0.0103 µM) | 0.006 µg/mL (≈ 0.0103 µM) | 1.6 µg/mL (≈ 2.74 µM) | 0.8 µg/mL (≈ 1.37 µM) | 0.025 µg/mL (≈ 0.0428 µM) |  |  |  |  |  |  |  |  | 
9 | C[C@@H](N(C)Cc1ccc(C#Cc2ccc(OC(F)(F)F)cc2)cc1)[C@](O)(Cn1cncn1)c1ccc(F)cc1F | 0.05 µg/mL (≈ 0.0898 µM) | 0.05 µg/mL (≈ 0.0898 µM) | 0.013 µg/mL (≈ 0.0234 µM) | 0.013 µg/mL (≈ 0.0234 µM) | 0.03 µg/mL (≈ 0.0539 µM) | 0.8 µg/mL (≈ 1.44 µM) | 0.05 µg/mL (≈ 0.0898 µM) |  |  |  |  |  |  |  |  | 
10 | CN(Cc1ccc(C#Cc2cccnc2)cc1)CC(O)(Cn1cncn1)c1ccc(F)cc1F (centres undefined) | 0.013 µg/mL (≈ 0.0283 µM) | 0.025 µg/mL (≈ 0.0544 µM) | 0.013 µg/mL (≈ 0.0283 µM) | 0.05 µg/mL (≈ 0.109 µM) | 0.8 µg/mL (≈ 1.74 µM) | 0.2 µg/mL (≈ 0.435 µM) | 0.05 µg/mL (≈ 0.109 µM) |  |  |  |  |  |  |  |  | 
11 | C[C@@H](N(C)Cc1ccc(C#Cc2ccc([N+](=O)[O-])cc2)cc1)[C@](O)(Cn1cncn1)c1ccc(F)cc1F | 0.013 µg/mL (≈ 0.0251 µM) | 0.006 µg/mL (≈ 0.0116 µM) | 0.006 µg/mL (≈ 0.0116 µM) | 0.006 µg/mL (≈ 0.0116 µM) | 0.01 µg/mL (≈ 0.0193 µM) | 0.01 µg/mL (≈ 0.0193 µM) | 0.013 µg/mL (≈ 0.0251 µM) | 0.05 µg/mL (≈ 0.0966 µM) | 0.25 µg/mL (≈ 0.483 µM) | 0.5 µg/mL (≈ 0.966 µM) | 8 µg/mL (≈ 15.5 µM) | 32 µg/mL (≈ 61.8 µM) | 4 µg/mL (≈ 7.73 µM) | 16 µg/mL (≈ 30.9 µM) | 8 µg/mL (≈ 15.5 µM) | 16 µg/mL (≈ 30.9 µM)
